Source: BindingDB's records for doi:10.1016/s0960-894x(03)00528-6 (Aston University, 2003)
pIC50: −log10 of the molar value.

molecular target: Arachidonate 15-lipoxygenase (Oryctolagus cuniculus); test: In vitro inhibitory activity of compound on rabbit reticulocyte 15-lipoxygenase

pIC50 | Compound
6.00 | O=C(Nc1ccc(O)c(O)c1)c1ccc(NCc2ccccc2O)cc1 [N-(3,4-Dihydroxy-phenyl)-4-(2-hydroxy-benzylamino)-benzamide]
5.83 | O=C(/C=C/c1ccc(NC(=O)c2ccccc2O)cc1)Nc1ccc(O)c(O)c1 [N-{4-[2-(3,4-Dihydroxy-phenylcarbamoyl)-vinyl]-phenyl}-2-hydroxy-benzamide]
5.84 | O=C(CCc1ccc(NC(=O)c2ccccc2O)cc1)Nc1ccc(O)c(O)c1 [N-{4-[2-(3,4-Dihydroxy-phenylcarbamoyl)-ethyl]-phenyl}-2-hydroxy-benzamide]
5.90 | O=C(Nc1ccc(O)c(O)c1)c1ccc(NC(=O)c2ccccc2O)cc1 [N-(4-{[(3,4-dihydroxyphenyl)amino]carbonyl}phenyl)-2-hydroxybenzamide]
5.82 | O=C(Nc1ccc(NC(=O)c2ccccc2O)cc1)Nc1ccc(O)c(O)c1 [N-{4-[3-(3,4-Dihydroxy-phenyl)-ureido]-phenyl}-2-hydroxy-benzamide]
